In brackets after ≈: the same amount, converted by molar mass. Entries after “also recorded” stand apart in the source; their conditions may differ. Like-named read-outs stand apart in the source and are kept apart here.
What was measured:
YFV = assay: microbe, parasite or virus in culture; format: cell-based, yellow fever virus
in vitro [1] = conditions: cattle (Bos taurus)
WNV [2] = format: cell-based, west nile virus; conditions: for Cell viability, addition at 1, 2, 4 or 8 hours post-infection: 15 μM for 4, 20 μM for 5
in vitro [3] = conditions: hamster (Mesocricetus auratus)
Reo-1 = assay: microbe, parasite or virus in culture; format: cell-based, reovirus type-1
WNV [4] = assay: microbe, parasite or virus in culture; format: cell-based, west nile virus
BVDV = assay: microbe, parasite or virus in culture; format: cell-based, bovine viral diarrhoea virus; conditions: read-out: EC50 BVDV
DENV-2 = assay: microbe, parasite or virus in culture; format: cell-based, dengue virus
WNV [5] = assay: microbe, parasite or virus in culture; format: cell-based, west nile virus; remark: listed apart in the source
[6] = test system: M. tuberculosis H37Ra ATCC 25177; assay: microbe, parasite or virus in culture; format: cell-based, Mycobacterium tuberculosis
HIV-1 IIIB = assay: microbe, parasite or virus in culture; format: cell-based, Human Immunodeficiency Virus type-1
HSV-1 = assay: microbe, parasite or virus in culture; format: cell-based, human herpes 1
in vitro [7] = conditions: human
[8] = test system: human lung adenocarcinoma epithelial cell line A549; conditions: previous studies; cited from earlier work
in vitro [9] = conditions: African green monkey (Cercopithecus aethiops)
WNV [10] = assay: Adsorption assay; format: cell-based, west nile virus; conditions: BHK cells, m.o.i. 1, 0-60 min at 4°C; 15μM for 4, 20μM for 5
WNV [11] = assay: Virucidal activity assay; format: cell-based, west nile virus; conditions: 45 min at 37°C, 6 and 20μM for 4, 20 and 50μM for 5
WNV [12] = assay: Yield reduction assay; format: cell-based, west nile virus; conditions: BHK-21, m.o.i. 0.1, 72 hrs, 15μM for 4, 20 μM for 5
[13] = test system: West Nile virus, Dengue virus and Yellow Fever virus; format: cell-based, Flaviviridae; conditions: read-out: EC50 range against West Nile virus, Dengue virus and Yellow Fever virus
M. tuberculosis = conditions: against M. tuberculosis; cited from earlier work
[14] = Yellow fever virus, BHK-21, read-out: EC50 YFV
[15] = Reovirus sp., BHK-21, read-out: EC50 Reo-1
[16] = Bovine viral diarrhea virus isolates and strains, MDBK, in Bos taurus
[17] = Mycobacterium tuberculosis, 672 h
[18] = Human immunodeficiency virus 1, IIIB, MT4, read-out: EC50 HIV-1IIIB
[19] = Human alphaherpesvirus 1, Vero 76, read-out: EC50 HSV-1

Molecule: C[C@@]1(O)[C@H](O)[C@@H](CO)O[C@H]1n1cnc2c(=O)[nH]c(N)nc21 [2’-C-methyl-guanosine, reference compound]
- EC50 (YFV; [14]): 1.4 µM
- CC50 (in vitro [1]): > 100 µM
- Cell viability, addition during the infection (WNV [2]): increases the cell viability
- CC50 (in vitro [3]): 80 µM
- Cytopathic effects on BHK-21 monolayers (BHK-21 cells): did not show significant cytopathic effects
- EC50 (Reo-1; [15]): 1 µM
- EC50 (WNV [4]; West Nile virus, BHK-21, read-out: EC50 WNV): 1 µM
- EC50 (BVDV; [16]): 2 µM
- EC50 (DENV-2; Dengue virus, DENV2, BHK-21, read-out: EC50 DENV-2): 1.4 µM
- EC50 (WNV [5]; West Nile virus, BHK-21, 2 h, read-out: EC50 WNV 2hrs p.i.): 1 µM
- EC50 (WNV [5]; West Nile virus, BHK-21, read-out: EC50 WNV d. i.): 1 µM

Molecule: COC(=O)[C@H](CCC=C(C)C)[C@@H]1[C@@H](O)C[C@]2(C)C3=CC[C@H]4C(C)(C)C(=O)CC[C@]4(C)[C@H]3CC[C@@]12C [Compound 2, methyl kulonate]
- EC50 (YFV; [14]): > 100 µM
- MIC [6, 17]: 70 µM (≈ 33.9 µg/mL)
- CC50 (in vitro [1]): 85 µM
- EC50 (HIV-1 IIIB; [18]): > 35 µM
- EC50 (HSV-1; [19]): > 100 µM
- CC50 (in vitro [3]): > 100 µM
- CC50 (in vitro [7]): 35 µM
- Cytotoxicity towards A549 [8]: exhibit cytotoxicity
- EC50 (Reo-1; [15]): > 100 µM
- EC50 (BVDV; [16]): > 85 µM
- CC50 (in vitro [9]): 100 µM

Molecule: C/C=C(\C)C(=O)O[C@@H]1CC[C@]2(C)[C@H]3CC[C@@]4(C)[C@@H]([C@@H]5C[C@H]([C@@H]6OC6(C)C)O[C@H]5O)CC[C@]4(C)C3=CC[C@H]2C1(C)C [Compound 4, 3-α-tigloyl-melianol]
- EC50 (YFV; read-out: EC50 YFV): 7 µM
- MIC [6]: 29 µM (≈ 16.1 µg/mL)
- CC50 (MDBK cells): 37 µM
- CC50 (MT-4 cells): 27 µM
- EC50 (HIV-1 IIIB; read-out: EC50 HIV-1IIIB): > 27 µM
- EC50 (HSV-1; read-out: EC50 HSV-1): > 100 µM
- CC50 (Vero-76 cells): 100 µM
- Cell viability, addition during the infection (WNV [2]): increases the cell viability
- Cell viability, pretreatment (WNV [2]): does not increase the cells viability
- Cell viability, addition at 1, 2, 4 or 8 hours post-infection (WNV [2]): not more able to protect BHK-21 cells; also recorded: not more able to significantly increase the cell viability
- Cytotoxicity against Vero cells (Vero cells): > 500 µM
- WNV adsorption (virus titre) (WNV [10]): doesn’t reduce the virus titre
- CC50 (BHK-21 cells): 20 µM
- Cytopathic effects on BHK-21 monolayers (BHK-21 cells): did not show significant cytopathic effects
- Cytotoxicity towards A549 [8]: exhibit cytotoxicity
- EC50 (Reo-1; read-out: EC50 Reo-1): > 20 µM
- Virucidal activity (WNV infectivity) (WNV [11]): failed to affect the WNV infectivity
- Virucidal activity (WNV infectivity) (WNV [11]; listed as 3-tigloyl-melianol): doesn’t affect the WNV infectivity
- Reduction of WNV titre (yield reduction) (WNV [12]): a reduction of virus titre was observed
- EC50 (WNV [4]; read-out: EC50 WNV): 3 µM
- EC50 (BVDV): > 37 µM
- EC50 [13]: 3 to 11 µM
- EC50 (DENV-2; read-out: EC50 DENV-2): 3 µM
- EC50 (WNV [5]; read-out: EC50 WNV 2hrs p.i.): > 20 µM
- EC50 (WNV [5]; read-out: EC50 WNV d. i.): 3.5 µM

Molecule: CC1(C)O[C@H]1[C@H]1C[C@@H]([C@@H]2CC[C@]3(C)C4=CC[C@H]5C(C)(C)C(=O)CC[C@]5(C)[C@H]4CC[C@@]23C)[C@H](O)O1 [Compound 5, melianone]
- EC50 (YFV; read-out: EC50 YFV): 3 µM
- MIC [6]: >136 µM
- CC50 (MDBK cells): 16 µM
- CC50 (MT-4 cells): > 100 µM
- EC50 (HIV-1 IIIB; read-out: EC50 HIV-1IIIB): > 100 µM
- EC50 (HSV-1; read-out: EC50 HSV-1): 20 µM
- CC50 (Vero-76 cells): 51 µM
- Cell viability, addition during the infection (WNV [2]): increases the cell viability
- Cell viability, pretreatment (WNV [2]): does not increase the cells viability
- Cell viability, addition at 1, 2, 4 or 8 hours post-infection (WNV [2]): not more able to protect BHK-21 cells; also recorded: not more able to significantly increase the cell viability
- WNV adsorption (virus titre) (WNV [10]): doesn’t reduce the virus titre
- CC50 (BHK-21 cells): 50 µM
- Cytopathic effects on BHK-21 monolayers (BHK-21 cells): did not show significant cytopathic effects
- Cytotoxicity towards A549 [8]: exhibit cytotoxicity
- EC50 (Reo-1; read-out: EC50 Reo-1): > 50 µM
- Virucidal activity (WNV infectivity) (WNV [11]): failed to affect the WNV infectivity
- Virucidal activity (WNV infectivity) (WNV [11]; listed as melianone): doesn’t affect the WNV infectivity
- Reduction of WNV titre (yield reduction) (WNV [12]): a reduction of virus titre was observed
- Reduction of WNV titre (yield reduction) (WNV [12]; listed as melianone): Reduction of WNV titre
- EC50 (WNV [4]; read-out: EC50 WNV): 11 µM
- EC50 (BVDV): > 16 µM
- EC50 [13]: 3 to 11 µM
- EC50 (DENV-2; read-out: EC50 DENV-2): 12 µM
- EC50 (WNV [5]; read-out: EC50 WNV 2hrs p.i.): > 50 µM
- EC50 (WNV [5]; read-out: EC50 WNV d. i.): 6.1 µM

Molecule: O=C1Nc2ccc(Cl)cc2[C@@](C#CC2CC2)(C(F)(F)F)O1 [Efavirenz, reference compound]
- EC50 (HIV-1 IIIB; [18]): 0.002 µM
- CC50 (in vitro [7]): 40 µM

Molecule: Nc1nc2c(ncn2COCCO)c(=O)[nH]1 [Acycloguanosine, reference compound]
- EC50 (HSV-1; [19]): 3 µM
- CC50 (in vitro [9]): > 100 µM

Molecule: 21-β-acetoxy-melianone [Compound 3]
- EC50 (YFV; read-out: EC50 YFV): > 10 µM
- CC50 (MDBK cells): 22 µM
- CC50 (MT-4 cells): 23 µM
- EC50 (HIV-1 IIIB; read-out: EC50 HIV-1IIIB): > 23 µM
- EC50 (HSV-1; read-out: EC50 HSV-1): > 36 µM
- CC50 (Vero-76 cells): 36 µM
- CC50 (BHK-21 cells): 10 µM
- Cytotoxicity towards A549 [8]: exhibit cytotoxicity
- EC50 (Reo-1; read-out: EC50 Reo-1): > 10 µM
- MIC (M. tuberculosis): 16 µg/mL
- EC50 (BVDV): > 22 µM

Molecule: NNC(=O)c1ccncc1 [Isoniazid, reference compound]
- MIC [6, 17]: 0.45 µM (≈ 0.0617 µg/mL)

From publication PMC4612778, “Limonoids from Melia azedarach Fruits as Inhibitors of Flaviviruses and Mycobacterium tubercolosis” (PLoS ONE, 2015)
